Where a name gives a salt, the structure may show the parent alone.

The EC50 is the concentration giving half of the maximal effect.

human activated kallikrein enzyme, sequence (P03952 391-638 limits assumed): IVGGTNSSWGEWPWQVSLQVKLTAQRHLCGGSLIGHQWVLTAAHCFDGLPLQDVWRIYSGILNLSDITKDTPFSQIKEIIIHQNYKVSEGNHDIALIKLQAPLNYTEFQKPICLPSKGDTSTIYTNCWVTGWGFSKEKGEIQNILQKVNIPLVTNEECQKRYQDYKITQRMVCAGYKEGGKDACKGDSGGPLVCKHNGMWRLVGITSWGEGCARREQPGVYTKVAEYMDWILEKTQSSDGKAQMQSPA
human activated kallikrein enzyme, sequence (P03952 20-390 partner limits assumed): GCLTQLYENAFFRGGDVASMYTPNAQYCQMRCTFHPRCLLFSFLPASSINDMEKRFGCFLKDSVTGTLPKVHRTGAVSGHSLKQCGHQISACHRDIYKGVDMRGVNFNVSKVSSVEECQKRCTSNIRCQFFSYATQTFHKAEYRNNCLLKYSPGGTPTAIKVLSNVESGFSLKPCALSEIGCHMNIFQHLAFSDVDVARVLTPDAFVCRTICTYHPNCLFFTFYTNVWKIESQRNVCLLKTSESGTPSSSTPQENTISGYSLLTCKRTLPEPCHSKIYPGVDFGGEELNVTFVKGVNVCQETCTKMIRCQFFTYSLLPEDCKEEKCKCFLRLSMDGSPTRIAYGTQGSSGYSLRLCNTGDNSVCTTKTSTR

The target of the assay is human activated kallikrein enzyme (Homo sapiens, UniProt P03952). Put plainly: Inhibition of human activated kallikrein enzyme, fluorogenic peptide substrate assay (500 pM enzyme format). It counts as biochemical. As to conditions: 500 pM activated kallikrein, 300 μM PFR-AMC substrate, 30 min preincubation, 10 min reaction, room temperature; read-out: Primary Dose Response Assay: Average EC50. The method, boiled down:
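500 pM enzyme preincubated 30 min at room temperature with inhibitor in 20 mM Tris pH 7.5, 150 mM NaCl, 1 mM EDTA, 0.1% PEG-400, 0.1% Triton X-100. Reaction started with 300 μM PFR-AMC and run 10 min at room temperature. AMC fluorescence read at ex 380/em 460 nm, and EC50 values reported as ranges.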
Turning to `O=C(CNc1cc(Cl)ccc1-n1cnnn1)Nc1cc(NCc2cn3cc(C4CC4)ccc3n2)ccn1` [Example 117, 2-((5-chloro-2-(1H-tetrazol-1-yl)phenyl)amino)-N-(4-(((6-cyclopropylimidazo[1,2-a]pyridin-2-yl)methyl)amino)pyridin-2-yl)acetamide], the EC50 lay in the range of 0.005 to 0.05 µM.

As to `O=c1c(NCc2cn3cc(C4CC4)ccc3n2)c(NCc2ncn3ccc(Cl)cc23)c1=O` [Example 68, 3-(((7-chloroimidazo[1,5-a]pyridin-1-yl)methyl)amino)-4-(((6-cyclopropylimidazo[1,2-a]pyridin-2-yl)methyl)amino)cyclobut-3-ene-1,2-dione], the EC50 lay in the range of 0.005 to 0.05 µM.

For the compound `CCOC(=O)c1nc(NCc2c(C)cc(C(=N)N)cc2C)cc(OCc2cn3cc(C4CC4)ccc3n2)n1` [Example 82, ethyl 4-((4-carbamimidoyl-2,6-dimethylbenzyl)amino)-6-((6-cyclopropylimidazo[1,2-a]pyridin-2-yl)methoxy)pyrimidine-2-carboxylate], the EC50 was at most 0.005 µM.

As to `O[C@H]1C[C@H](c2cn3cc(C4CC4)ccc3n2)N(c2cc(NCc3cnc4[nH]cc(Cl)c4c3)ncn2)C1` [Example 137, (3S,5R)-1-(6-(((3-chloro-1H-pyrrolo[2,3-b]pyridin-5-yl)methyl)amino)pyrimidin-4-yl)-5-(6-cyclopropylimidazo[1,2-a]pyridin-2-yl)pyrrolidin-3-ol], the EC50 is 0.05 to 0.5 µM.

As for `CCOC(=O)CCc1nc(NCc2c(C)cc(C(=N)NC(=O)OCC)cc2C)cc(OCc2cn3cc(C4CC4)ccc3n2)n1` [Example 77, ethyl 3-(4-((6-cyclopropylimidazo[1,2-a]pyridin-2-yl)methoxy)-6-((4-(N-(ethoxycarbonyl)carbamimidoyl)-2,6-dimethylbenzyl)amino)pyrimidin-2-yl)propanoate], the EC50 was in the range of 0.005 to 0.05 µM.

Regarding `O=C(Cc1ncn2ccc(Cl)cc12)Nc1cc(NCc2cn3cc(C4CC4)ccc3n2)ccn1` [Example 25, 2-(7-chloroimidazo[1,5-a]pyridin-1-yl)-N-(4-(((6-cyclopropylimidazo[1,2-a]pyridin-2-yl)methyl)amino)pyridin-2-yl)acetamide], the EC50 is at most 0.005 µM.

Consider `O=C(Cc1cc(Cl)ccc1Br)Nc1cc(NCc2cn3cc(C4CC4)ccc3n2)ncn1` [Example 51, 2-(2-bromo-5-chlorophenyl)-N-(6-(((6-cyclopropylimidazo[1,2-a]pyridin-2-yl)methyl)amino)pyrimidin-4-yl)acetamide], for which the EC50 is over 9 µM.

Consider `CCOC(=O)NC(=N)c1cc(C)c(CNc2cc(OCc3cn4cc(C5CC5)ccc4n3)nc(C(=O)OCC)n2)c(C)c1` [Example 86, ethyl 4-((6-cyclopropylimidazo[1,2-a]pyridin-2-yl)methoxy)-6-(4-(N-(ethoxycarbonyl)carbamimidoyl)-2,6-dimethylbenzylamino)pyrimidine-2-carboxylate], for which the concentration for a half-maximal effect (EC50) fell in the range of 0.05 to 0.5 µM.

On to `COc1ccc(CNc2cc(NCc3cn4cc(C5CC5)ccc4n3)ncn2)c(OC)c1` [Example 136, N^4-((6-cyclopropylimidazo[1,2-a]pyridin-2-yl)methyl)-N^6-(2,4-dimethoxybenzyl)pyrimidine-4,6-diamine], for which the EC50 fell in the range of 0.5 to 9 µM.

With `CCOC(=O)CCc1nc(NCc2c(C)cc(C(=N)N)cc2C)cc(OCc2cn3cc(C4CC4)ccc3n2)n1` [Example 70, ethyl 3-(4-((4-carbamimidoyl-2,6-dimethylbenzyl)amino)-6-((6-cyclopropylimidazo[1,2-a]pyridin-2-yl)methoxy)pyrimidin-2-yl)propanoate formic acid salt], the EC50 is at most 0.005 µM.

In the case of `N#C/N=C(\NCc1cccc(Cl)c1)Nc1cc(NCc2cn3cc(C4CC4)ccc3n2)ccn1` [Example 128, (E)-1-(3-chlorobenzyl)-2-cyano-3-(4-(((6-cyclopropylimidazo[1,2-a]pyridin-2-yl)methyl)amino)pyridin-2-yl)guanidine], the EC50 lay within 0.5 to 9 µM.

For `O[C@H]1C[C@H](c2cn3cc(C4CC4)ccc3n2)N(c2cc(NCc3cc4c(Cl)c[nH]c4cc3F)ncn2)C1` [Example 139, (3S,5R)-1-(6-(((3-chloro-6-fluoro-1H-indol-5-yl)methyl)amino)pyrimidin-4-yl)-5-(6-cyclopropylimidazo[1,2-a]pyridin-2-yl)pyrrolidin-3-ol], the EC50 was in the range of 0.05 to 0.5 µM.

Take `COc1ccc(N)c(CC(=O)Nc2cc(NCc3cn4cc(C5CC5)ccc4n3)ncn2)c1F` [Example 36, 2-(6-amino-2-fluoro-3-methoxyphenyl)-N-(6-(((6-cyclopropylimidazo[1,2-a]pyridin-2-yl)methyl)amino)pyrimidin-4-yl)acetamide]: the EC50 lay in the range of 0.5 to 9 µM.

With `CC(O)c1nc(NCc2cn3cc(C4CC4)ccc3n2)cc(NC(=O)Cc2ncn3ccc(Cl)cc23)n1` (centres unmarked) [Example 103, 2-(7-chloroimidazo[1,5-a]pyridin-1-yl)-N-(6-(((6-cyclopropylimidazo[1,2-a]pyridin-2-yl)methyl)amino)-2-(1-hydroxyethyl)pyrimidin-4-yl)acetamide], the EC50 was at most 0.005 µM.

Take `Cc1cc(C(=N)N)cc(C)c1CNc1cc(OCc2cn3cc(C4CC4)ccc3n2)nc(C(=O)O)n1` [Example 85, 4-((4-carbamimidoyl-2,6-dimethylbenzyl)amino)-6-((6-cyclopropylimidazo[1,2-a]pyridin-2-yl)methoxy)pyrimidine-2-carboxylic acid]: the EC50 is at most 0.005 µM.

For `CC(C)(Cc1cc(C2CC2)cn2cc(CNc3cc(NC(=O)Cc4ncn5ccc(Cl)cc45)ncn3)nc12)C(=O)O` [Example 40, 3-(2-(((6-(2-(7-chloroimidazo[1,5-a]pyridin-1-yl)acetamido)pyrimidin-4-yl)amino)methyl)-6-cyclopropylimidazo[1,2-a]pyridin-8-yl)-2,2-dimethylpropanoic acid], the EC50 is at most 0.005 µM.

As for `O=C(Cc1ncn2ccc(Cl)cc12)Nc1cc(NCc2cn3cc(C4CC4)cc(C4(F)COC4)c3n2)ncn1` [Example 19, 2-(7-chloroimidazo[1,5-a]pyridin-1-yl)-N-(6-(((6-cyclopropyl-8-(3-fluorooxetan-3-yl)imidazo[1,2-a]pyridin-2-yl)methyl)amino)pyrimidin-4-yl)acetamide], the EC50 is at most 0.005 µM.

For `O=C(O)CCc1cc(C2CC2)cn2cc(CNc3cc(NC(=O)Cc4ncn5ccc(Cl)cc45)ncn3)nc12` [Example 39, 3-(2-(((6-(2-(7-chloroimidazo[1,5-a]pyridin-1-yl)acetamido)pyrimidin-4-yl)amino)methyl)-6-cyclopropylimidazo[1,2-a]pyridin-8-yl)propanoic acid], the EC50 was at most 0.005 µM.

Take `Cc1cc(C(=N)N)cc(C)c1CNc1cc(OCc2cn3cc(C4CC4)cc(CC(=O)O)c3n2)ncn1` [Example 95, 2-(2-((6-(4-carbamimidoyl-2,6-dimethylbenzylamino)pyrimidin-4-yloxy)methyl)-6-cyclopropylimidazo[1,2-a]pyridin-8-yl)acetic acid]: the EC50 was at most 0.005 µM.

In the case of `O=C(Cc1ncn2ccc(Cl)cc12)Nc1cc(C(F)(F)c2cn3cc(C4CC4)ccc3n2)ncn1` [Example 60, 2-(7-chloroimidazo[1,5-a]pyridin-1-yl)-N-(6-((6-cyclopropylimidazo[1,2-a]pyridin-2-yl)difluoromethyl)pyrimidin-4-yl)acetamide formic acid salt], the EC50 is 0.05 to 0.5 µM.

The record behind these values is patent US20240382482A1, “PLASMA KALLIKREIN INHIBITORS” (TAKEDA PHARMACEUTICAL COMPANY LIMITED, priority 2021, published 2024).
